# According to PMC9786748, “Carvacrol and HP-β-Cyclodextrin Complexes: Extensive Characterization and Potential Cytotoxic Effect in Human Colorectal Carcinoma Cells” (Pharmaceutics, 2022):
# Read-outs that look alike come from different tables or passages of the source.
# How the values were obtained:
# [1] = Phase solubility study of carvacrol with β-CDs (Higuchi and Connors); assay type: physicochemical; settings: for CE (complexation efficiency) / KC: β-CDs
# Protocol: (§1) The solubility studies of carvacrol, in the presence of CDs, were performed according to the method described by Higuchi and Connors in 1965, with slight modifications. […] For an evaluation of the pH effect in the process of complex formation, these solutions were prepared in different buffer solutions: 100 mM sodium acetate buffer, pH 3.5 and 5.5; 100 mM sodium phosphate buffer, pH 6.5 and 7.0; and 100 mM sodium borate buffer, pH 8.5. To each solution, a saturating amount of the carvacrol under analysis was added, then the solutions were kept in an ultrasonic bath for 60 min in the dark at 25 °C until equilibrium was reached. After this point, the solutions were filtered through 0.45 μm nylon to remove the excess carvacrol.
# (§2) To quantify the amount of monoterpene in each filtrate, the complexes were disrupted by adding 80% ethanol. Each solution was then introduced into a gas chromatograph, coupled to a mass spectrometer (Shimadzu QP 2010) equipped with an Slb-5 ms (30 m × 0.25 mm × […]) capillary column. The operating conditions are as follows: the starting temperature is 70 °C, the temperature is increased at a rate of 4 °C/min until it reaches 160 °C and is then increased to 280 °C at a rate of 30 °C/min, then held there for 6 min; the inlet temperature is 250 °C, the injection type is a 1:20 split mode, with helium used as the carrier gas. Component identification is based on the relative elution times and comparison of the mass spectra of each peak against a database containing the system.
# (§3) Once the concentrations of carvacrol in each sample were quantified, the values obtained were plotted against the concentrations of CDs. For the calculation of KC, the slope and intercept of the phase diagrams related to the solubility studies were determined, according to Equation (1):(1) KC=Slope/S0 (1−Slope) where S0 is the solubility of carvacrol at 25 °C, in the absence of cyclodextrins, and Slope is the gradient of the phase solubility diagrams.
# (§4) To determine the complexation efficiency (CE) of carvacrol, Equation (2) was used:(2) CE=[carvacrol−CDs]/[CD]=S0× KC.
# (§5) The molar ratio (MR) of carvacrol:CDs was calculated using the CE values and Equation (3):(3) carvacrol:CDs=1:(1+1/CE).
# [2] = Phase solubility study of carvacrol with HP-β-CDs (Higuchi and Connors); assay type: physicochemical
# Protocol: as §1, §2, §3, §4, §5
# [3] = tested on: HCT-116 colorectal cancer cells; experiment: Cell viability assay (tetrazolium), HCT-116; assay type: cell-based; settings: Homo sapiens; HCT-116, 72 h incubation
# Protocol: (§6) Colorectal adenocarcinoma (HCT-116) and non-tumoral fetal lung fibroblast (MRC5) cell lines were obtained from the American Type Culture Collection (ATCC, Rockville, MD, USA). The cell lines were cultivated in high glucose Dulbecco’s modified Eagle’s medium (DMEM) and Eagle’s minimum essential medium (EMEM), respectively, containing 10% heat-inactivated fetal bovine serum (FBS), 2 mM glutamine, 50 U/mL penicillin and 50 µg/mL streptomycin (Sigma-Aldrich Chemical Co., St. Louis, MO, USA) in an atmosphere of 5% CO2 and 95% humidified air at 37 °C. The subculture was complete when 90% confluence was reached. Fibroblasts for up to 15 doublings were used for the experiments.
# (§7) Exponentially growing cells were plated in triplicate in flat-bottomed 96-well plates (Nunc, Roskilde, Denmark) at 1500 cells/well for HCT-116 and 4000 cells/well for MRC5. The following day, compounds were added in serial dilutions, from 50 µM to 1000 µM. Control wells contained compound-free medium plus 0.1% dimethyl sulfoxide (DMSO). The plates were incubated for 3 days in a humidified 5% CO2 incubator and cell viability was determined. […] The formazan crystals were dissolved in 200 µL DMSO for 30 min and the absorbance was read at 570 nm in a microtiter plate reader. The results were calculated as:(7) cell viability (%)=average O.D of wells/average O.D of control wells.
# [4] = weak acid; cited from earlier work
# [5] = tested on: MRC-5 lung fibroblast cells; experiment: Cell viability assay (tetrazolium), MRC-5; assay type: cell-based; settings: Homo sapiens, MRC5; MRC-5, 72 h incubation
# Protocol: as §6, §7
# [6] = Solubility of carvacrol in the absence of cyclodextrins (S0) at different pH; assay type: physicochemical; settings: for S0 (solubility of carvacrol) / solubility at 60 min: absence of CDs; for solubility at 60 min: aqueous buffer, thermodynamic from solid
# Protocol: as §1, §2, §3
# [7] = Complexation of carvacrol with HP-β-CD by microwave irradiation (MWI); assay type: physicochemical; settings: for increase in solubility of carvacrol / KC: HP-β-CDs
# Protocol: as §3
# The calculation of the complexation constant (KC) between carvacrol and HP-β-CDs was carried out by the addition of different concentrations of HP-β-CDs to 100 mL of water, maintaining a 1:1 molar ratio. Aqueous HP-β-CD solutions (0–100 mM) were irradiated with microwaves for 30 s at 10 s intervals until the dissolution reached 70 °C. The carvacrol was then added to each sample and irradiated again for 30 s at the same intervals (10 s) until the samples reached 70 °C. Subsequently, the samples were shaken and held for 12 h in scintillation vials, sealed with parafilm, and protected from light.
# Then, we repeated the above procedure by irradiating the sample again until it reached 70 °C. The solution was then filtered through 0.45 μm nylon to remove the excess carvacrol. Finally, the concentration of monoterpene was determined via CG-MS.
# [8] = Phase solubility study of carvacrol with α-CDs (Higuchi and Connors); assay type: physicochemical
# Protocol: as §1, §2, §3, §4, §5
# [9] = Complexation of carvacrol with HP-β-CD by ultrasound (US); assay type: physicochemical
# Protocol: as §3
# The solubility method was developed from that used by Higuchi and Connors, with minor modifications. We added an excess of carvacrol to an aqueous solution that increased the concentration to 100 mM HP-β-CD, in 100 mL of water, at 25 °C. […] The aqueous solutions were filtered through 0.45 µm nylon to remove the excess free carvacrol. To determine the amount of carvacrol complexed, samples were diluted in ethanol-water at 80% and analyzed via gas chromatography–mass spectrometry (CG–MS).
# [10] = end of the 7-day period, 300 µM, DMEM with HCT-116 cells, 37 °C
# Protocol: Carvacrol release from the free and complexed carvacrol was monitored by chromatography (see Section 2.2). Briefly, 1 × 10^5 HCT-116 cells were grown for up to 7 days in DMEM, supplemented with 300 µM free or complexed HP-β-CD-carvacrol, at 37 °C. At each appropriate time point (days 1–7), 1 mL aliquots were withdrawn and replaced with an equal volume of fresh medium. All determinations were made in triplicate.
# [11] = parameters: method as in PMID 25298799; settings: with CRYSMEB; cited from earlier work
# [12] = parameters: method as in PMID 25298799; settings: with RAMEB; cited from earlier work
# [13] = parameters: method as in PMID 25298799; settings: with HP-β-CDs; cited from earlier work
structure (smiles),measurement,setting,value
Cc1ccc(C(C)C)cc1O [carvacrol],KC with β-CDs relative to KC with α-CD,[1]; compared with α-CD (400 ± 56),8 times higher
same,CE (complexation efficiency),[1]; pH 3.5,0.386
same,KC,[1]; pH 3.5,140 ± 21 L/mol
same,CE (complexation efficiency),[1]; pH 5.5,1.234
same,KC,[1]; pH 5.5,748 ± 19 L/mol
same,CE (complexation efficiency),[1]; pH 6.5,0.797
same,KC,[1]; pH 6.5,866 ± 180 L/mol
same,CE (complexation efficiency),[1]; pH 7.0,1.941
same,KC,[1]; pH 7.0,3466 ± 115 L/mol
same,CE (complexation efficiency),[1]; pH 8.5,0.441
same,KC,[1]; pH 8.5,580 ± 45 L/mol
same,CE (complexation efficiency),[2]; pH 3.5,0.546
same,KC,[2]; pH 3.5,198 ± 19 L/mol
same,CE (complexation efficiency),[2]; pH 5.5,0.540
same,KC,[2]; pH 5.5,327 ± 37 L/mol
same,CE (complexation efficiency),[2]; pH 6.5,1.399
same,KC,[2]; pH 6.5,1521 ± 73 L/mol
same,CE (complexation efficiency),[2]; pH 7.0,2.824
same,KC,[2]; pH 7.0,5042 ± 176 L/mol
same,CE (complexation efficiency),[2]; pH 8.5,0.739
same,KC,[2]; pH 8.5,973 ± 94 L/mol
same,IC50,[3],385 µM
same,pKa,[4],10.38
same,IC50,[5],398 µM
same,S0 (solubility of carvacrol),"[6]; pH 3.5, 25 °C",2760 ± 200 µM
same,S0 (solubility of carvacrol),"[6]; pH 6.5, 25 °C",920 ± 110 µM
same,decrease of solubility at pH 7.0 relative to acidic pH,[6]; pH 7.0 vs acidic pH (S0 = 2.76),80%
same,S0 (solubility of carvacrol),"[6]; pH 8.5, 25 °C",760 ± 130 µM
same,solubility at 60 min,"[6]; sodium acetate buffer, pH 3.5, 25 °C",2760 µM
same,solubility at 60 min,"[6]; sodium acetate buffer, pH 5.5, 25 °C",1650 ± 160 µM
same,solubility at 60 min,"[6]; sodium borate buffer, pH 8.5, 25 °C",760 µM
same,solubility at 60 min,"[6]; sodium phosphate buffer, pH 6.5, 25 °C",920 µM
same,solubility at 60 min,"[6]; sodium phosphate buffer, pH 7.0, 25 °C",560 ± 30 µM
same,increase in solubility of carvacrol,"[7]; MWI, 24 h",151.8 times
same,increase in solubility of carvacrol,"[7]; MWI, 48 h",155.6 times
same,KC,"[7]; MWI, at 24 h, pH 7.0",8129 ± 194 L/mol
same,KC,"[7]; MWI, at 48 h, pH 7.0",6811 ± 107 L/mol
same,KC,[7]; microwave irradiation (MWI),6909 ± 161 L/mol
same,S0,[7]; in the case of MWI,0.35 mmol/L
same,CE (complexation efficiency),[8]; pH 3.5,0.298
same,KC,[8]; pH 3.5,108 ± 16 L/mol
same,CE (complexation efficiency),[8]; pH 5.5,0.317
same,KC,[8]; pH 5.5,192 ± 24 L/mol
same,CE (complexation efficiency),[8]; pH 6.5,0.220
same,KC,[8]; pH 6.5,239 ± 42 L/mol
same,CE (complexation efficiency),[8]; pH 7.0,0.224
same,KC,[8]; pH 7.0,400 ± 56 L/mol
same,CE (complexation efficiency),[8]; pH 8.5,0.216
same,KC,[8]; pH 8.5,284 ± 37 L/mol
same,increase in solubility of carvacrol,"[9]; HP-β-CDs, US method",132.9 times
same,KC,"[9]; HP-β-CDs, US, pH 7.0",6909 ± 161 L/mol
same,KC,"[9]; HP-β-CDs, ultrasound (US), 24 h",8129 ± 194 L/mol
same,S0,[9]; achieved by US,0.56 mmol/L
same,soluble drug (carvacrol release),[10],4.37 ± 1.61%
O=C(O)/C=C/c1ccc(O)cc1 [p-coumaric acid],CE (complexation efficiency),[11],1.89
same,CE (complexation efficiency),[12],2.57
same,CE (complexation efficiency),[13],2.30
